Results published in PMC8064090 (Biomolecules, 2021).
Read-outs that look alike come from different tables or passages of the source.

Legend:
[1] = target: wild type South African HIV-1 subtype C PR; conditions: previous study ref 71; cited from earlier work
[2] = target: T1, HIV-1 PR MUT-1 (M46I, I54V, V82A, L10F) (Human immunodeficiency virus type 1 group M subtype C, UniProt O12158, I538V/L494F/M530I/V566A); experiment: biochemical; type: binding, HIV-1 subtype C; set-up: The HIV-1 PR is a 99 amino acid homodimer; made in house; host or cells: Escherichia coli (NEBExpress); conditions: for Stern–Volmer quenching constant (Ksv): MUT-1 HIV-1 PR
T1 sequence (O12158 485-583 L494F/M530I/I538V/V566A): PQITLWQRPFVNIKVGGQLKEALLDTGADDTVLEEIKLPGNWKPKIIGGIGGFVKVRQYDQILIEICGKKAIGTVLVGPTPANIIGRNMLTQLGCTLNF
Experimental: (§1) Fluorescent spectra were recorded as described previously using a PerkinElmer LS 55 spectrometer with a 1.0 cm quartz cell (PerkinElmer, Waltham, MA, USA) and connected to a thermostat-controlled bath. This assay utilized the intrinsic tryptophan (Trp) fluorescence by causing the excitation of the π–π* transition in the tryptophan residues. Two Trp residues are found at positions 6 and 42 in each monomer of HIV-1 PR. Trp 6 is located close to the active site, and Trp 42 is found close to the flap of the HIV-1 PR. The position of the Trp residues on the enzyme surface makes them good probes in monitoring changes in the HIV-1 PR tertiary structure. The protein was excited at 295 nm, and fluorescence measurements were recorded from 300 to 420 nm at room temperature (25 °C). The excitation and emission slit widths were set at 5 nm, and the fluorescence spectra were acquired at 500 nm/min. The obtained fluorescence data was corrected and smoothened by running control samples of the buffer. For the fluorescence quenching study, […] of HIV-1 PR and varying inhibitor concentration from 10 to 500 nM were used. For every reaction, a new enzyme solution was used. […] The inner filter effect was corrected by using the formula Fc = Fantilog[(Aex + Aem)/2], where Fc is the corrected measurement and F is the measured fluorescence intensities, respectively, Aex is solution absorbance at the excitation, and Aem emission wavelengths.

[3] = target: T2, HIV-1 PR MUT-3 (M46I, I54V, L76V, V82A, L90M, F53L) (Human immunodeficiency virus type 1 group M subtype C, UniProt O12158, F537L/I538V/L560V/L574M/M530I/V566A); experiment: biochemical; type: binding, HIV-1 subtype C; set-up: The HIV-1 PR is a 99 amino acid homodimer; made in house; host or cells: Escherichia coli (NEBExpress); conditions: for Stern–Volmer quenching constant (Ksv): MUT-3 HIV-1 PR
T2 sequence (O12158 485-583 M530I/F537L/I538V/L560V/V566A/L574M): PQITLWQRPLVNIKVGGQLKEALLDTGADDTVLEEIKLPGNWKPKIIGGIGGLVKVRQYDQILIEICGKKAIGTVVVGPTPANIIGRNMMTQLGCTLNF
Experimental: as §1

[4] = target: T3, HIV-1 PR MUT-2 (M46I, I54V, L76V, V82A, L10F, L33F) (Human immunodeficiency virus type 1 group M subtype C, UniProt O12158, I538V/L494F/L517F/L560V/M530I/V566A); experiment: Intrinsic tryptophan fluorescence quenching assay, MUT-2 PR; type: binding, HIV-1 subtype C; conditions: MUT-2 HIV-1 PR; for Ki: tryptophan fluorescence, 25 °C
T3 construct: The HIV-1 PR is a 99 amino acid homodimer; made in house; host or cells: Escherichia coli (NEBExpress)
T3 sequence (O12158 485-583 L494F/L517F/M530I/I538V/L560V/V566A): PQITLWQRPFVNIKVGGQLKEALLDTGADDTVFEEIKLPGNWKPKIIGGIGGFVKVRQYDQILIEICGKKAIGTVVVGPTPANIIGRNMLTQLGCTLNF
Experimental: as §1

[5] = target: T1, HIV-1 PR MUT-1 (M46I, I54V, V82A, L10F); experiment: biochemical
Experimental: (§2) HIV-1 PR activity was measured by adding a purified enzyme (100–300 nM) to 300 µM of the chromogenic substrate Lys-Ala-Arg-Val-Nle-p-nitro-Phe-Glu-Ala-Nle amide (Sigma-Aldrich, St. Louis, MO, USA) dissolved in buffer D (50 mM sodium acetate buffer containing 100 mM NaCl (pH 5.0)) at 37 °C. The change in absorbance upon hydrolysis of the substrate by HIV-1 PR was monitored, and an extinction coefficient of 1800 M-1 cm-1 at a wavelength of 300 nm was used to convert the absorbance change to reaction rates. […] The data obtained were analyzed by plotting the reciprocal of substrate hydrolysis against substrate concentration (Lineweaver–Burk method to determine the Km and Kcat) and inhibitor concentration (Dixon method to determine the Ki) respectively.

[6] = target: T2, HIV-1 PR MUT-3 (M46I, I54V, L76V, V82A, L90M, F53L); experiment: biochemical
Experimental: as §2

[7] = target: HIV-1 PR MUT-2 (M46I, I54V, L76V, V82A, L33F, L10F) (Human immunodeficiency virus type 1 group M subtype C, UniProt O12158, I538V/L494F/L517F/L560V/M530I/V566A); experiment: biochemical
HIV-1 PR MUT-2 (M46I, I54V, L76V, V82A, L33F, L10F) (Human immunodeficiency virus type 1 group M subtype C, UniProt O12158, I538V/L494F/L517F/L560V/M530I/V566A), sequence (O12158 485-583 L494F/L517F/M530I/I538V/L560V/V566A): as above
Experimental: as §2

[8] = target: T4, wild type (WT) South African HIV-1 subtype C protease (HIV-1 PR) (Human immunodeficiency virus type 1 group M subtype C, UniProt O12158); experiment: Intrinsic tryptophan fluorescence quenching assay, wild type PR; type: binding
T4 sequence (O12158 485-583): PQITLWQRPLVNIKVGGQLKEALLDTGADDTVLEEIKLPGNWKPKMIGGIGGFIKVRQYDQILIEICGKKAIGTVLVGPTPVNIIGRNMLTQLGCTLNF
Experimental: Fluorescent spectra were recorded as described previously using a PerkinElmer LS 55 spectrometer with a 1.0 cm quartz cell (PerkinElmer, Waltham, MA, USA) and connected to a thermostat-controlled bath. This assay utilized the intrinsic tryptophan (Trp) fluorescence by causing the excitation of the π–π* transition in the tryptophan residues. Two Trp residues are found at positions 6 and 42 in each monomer of HIV-1 PR. Trp 6 is located close to the active site, and Trp 42 is found close to the flap of the HIV-1 PR. The position of the Trp residues on the enzyme surface makes them good probes in monitoring changes in the HIV-1 PR tertiary structure. The protein was excited at 295 nm, and fluorescence measurements were recorded from 300 to 420 nm at room temperature (25 °C). The excitation and emission slit widths were set at 5 nm, and the fluorescence spectra were acquired at 500 nm/min. The obtained fluorescence data was corrected and smoothened by running control samples of the buffer. For the fluorescence quenching study, […] of HIV-1 PR and varying inhibitor concentration from 10 to 500 nM were used. For every reaction, a new enzyme solution was used. The decrease in intrinsic Trp fluorescence (F0–F) at each concentration of inhibitor was fitted to the equation (F0–F) = ΔFmax/(1 + (Ki/[I]) to determine Ki and ΔFmax values using the Origin(Pro), 2019 (OriginLab Corporation, Northampton, MA, USA). The Stern–Volmer quenching constants (Ksv) were also calculated by fitting the data into the equation F0/F = 1 + Ksv (Q). The Stern–Volmer constant reports the accessibility of fluorophores to a quencher and the solvent accessibility of the fluorophore. Thus, it is an essential tool that can be used to probe the conformational changes around a fluorophore in proteins. […] The inner filter effect was corrected by using the formula Fc = Fantilog[(Aex + Aem)/2], where Fc is the corrected measurement and F is the measured fluorescence intensities, respectively, Aex is solution absorbance at the excitation, and Aem emission wavelengths.

[9] = target: wild-type subtype B HIV-1 PR; conditions: cited from earlier work
[10] = target: T4, wild type (WT) South African HIV-1 subtype C protease (HIV-1 PR); experiment: Enzyme inhibition assay with chromogenic substrate (Dixon method), wild type PR; type: biochemical; conditions: for Relative Resistance: WT, Ki of mutant/Ki of WT
Experimental: as §2

[11] = tested on: HIV-1 PR MUT-2 (M46I, I54V, L76V, V82A, L33F, L10F); experiment: biochemical; conditions: MUT-2; Ki of mutant/Ki of WT
Experimental: as §2

[12] = tested on: HIV-1 PR MUT-1 (M46I, I54V, V82A, L10F); experiment: biochemical; conditions: MUT-1; Ki of mutant/Ki of WT
Experimental: as §2

[13] = tested on: HIV-1 PR MUT-3 (M46I, I54V, L76V, V82A, L90M, F53L); experiment: biochemical; conditions: MUT-3; Ki of mutant/Ki of WT
Experimental: as §2

[14] = target: multidrug-resistant forms of HIV-1 subtype B PR harboring numerous major and minor mutations; conditions: cited from earlier work

## CC(C)CN(C[C@@H](O)[C@H](Cc1ccccc1)NC(=O)O[C@H]1CO[C@H]2OCC[C@H]21)S(=O)(=O)c1ccc(N)cc1 [DRV, darunavir]
[1]
  Ki: 1.4 ± 0.2 nM
[2]
  Ki: 26.3 nM
  Stern–Volmer quenching constant (Ksv): 0.01 nM⁻¹
[3]
  Ki: 44.7 nM
  Stern–Volmer quenching constant (Ksv): 0.005 nM⁻¹
[4]
  Stern–Volmer quenching constant (Ksv): 0.009 nM⁻¹
  Ki: 32.9 nM
[5]
  Ki: 5.53 ± 0.09 nM
[6]
  Ki: 11.5 ± 1.09 nM
[7]
  Ki: 7.8 ± 0.71 nM
[8]
  Ki: 8.12 nM
[8]; WT HIV-1 PR
  Stern–Volmer quenching constant (Ksv): 0.030 nM⁻¹
[9]; wild type subtype B HIV-1 PR
  Ki: ~0.005 nM
[10]
  Ki: 1.58 ± 0.11 nM
  Relative Resistance: 1.00

## Cc1cccc(C)c1OCC(=O)N[C@@H](Cc1ccccc1)[C@@H](O)C[C@H](Cc1ccccc1)NC(=O)[C@H](C(C)C)N1CCCNC1=O [LPV, lopinavir]
[1]
  Ki: 2.1 ± 0.2 nM
[2]
  Ki: 54.7 nM
  Stern–Volmer quenching constant (Ksv): 0.004 nM⁻¹
[3]
  Ki: 113 nM
  Stern–Volmer quenching constant (Ksv): 0.003 nM⁻¹
[4]
  Stern–Volmer quenching constant (Ksv): 0.004 nM⁻¹
  Ki: 79.5 nM
[11]
  Relative Resistance: 24.71
[5]
  Ki: 46.5 ± 0.14 nM
[6]
  Ki: 76.26 ± 0.09 nM
[12]
  Relative Resistance: 21.83
[7]
  Ki: 52.6 ± 0.65 nM
[13]
  Relative Resistance: 35.80
[8]
  Ki: 17.2 nM
  Stern–Volmer quenching constant (Ksv): 0.02 nM⁻¹
[9]; wild-type subtype B HIV-1 PR
  Ki: ~0.02 nM
[14]
  Ki: 0.44 to 260 nM
[10]
  Ki: 2.13 ± 0.23 nM
  Relative Resistance: 1.00
